pEC50, pKi: −log10 of the molar value.
Target: human CCR2 (Homo sapiens, UniProt P41597)
Experiment: CCR2 functional calcium assay (FLIPR calcium flux, hMCP-1 challenge)
Assay type: cell-based
Set-up: expressed in transfected cells; host or cells: HEK293 EBNA cells
Details: HEK293 EBNA cells transfected with human CCR2, hMCP-1 challenge; read-out: Functional CCR2 fKi
Description: The CCR2 receptor couples through the Gi/Gq signaling pathway and results in activation of calcium mobilization. The functional activity of test compounds was routinely tested by measuring the ability of compounds to antagonize CCR2 activity in a dose dependent manner, in HEK293 EBNA cells transfected with the human CCR2 receptor (hMCP-1 challenge), using a calcium flux Fluorescent Imaging Plate Reader FLIPR assay. Non-transfected HEK293 EBNA cells were used as control of non-specific response.
Briefly, test compounds were dissolved in dimethyl sulfoxide (DMSO) to a concentration of 10 mM and stored in matrix screenmate racks. The required amount of compound was transferred to 96-well compound plates on the day of assay and diluted in assay buffer to the required final concentration; dose-response measurements were assayed by making 1:3 serial dilutions to produce 10 point curves. The compounds were then transferred to 384-well assay plates ready for use. Top concentrations were adjusted depending on the potency of the compounds with a typical concentration range of 30 μM to 0.5 nM being used. The assay buffer used was HBSS buffer supplemented with 20 mM HEPES and 0.1% BSA, pH7.4. The loading/wash buffers were the same as the assay buffer.
Cells were suspended in culture medium at a density of 10000 cells/50 μl (the cell culture media composition was DMEM high glucose supplemented with 10% dialyzed FBS, 250 μg/ml Geneticin, and 400 μg/ml Hygromycin B), transferred to 384-well black/clear Costar plates (Costar #3712) (50 μl/well) and incubated at 37° C., in a 5% CO2/95% air humidified incubator for 16 h. The cells were washed with assay buffer at 37° C. using the Biotek ELx 405, washing 3 times, leaving 20 μl buffer in the well. 20 μl Fluo-4 (Fluo-4 stock solution (1 mM) was prepared by dissolving one vial of Fluo-4 (50 μg) in 45 μl of pluronic acid (240 mg/ml in DMSO). This stock solution of Fluo-4 was then diluted 250 times with loading buffer to give a Fluo-4 concentration of 4 μM. The dye solution (used within 2 h and kept away from light) was added to each well using a repeating multichannel pipette; the cells were then incubated at 37° C. for 60 min. Following the incubation, cells were washed in assay buffer at 37° C. using the Biotek ELx 405, washing 3 times, leaving 40 μl in each well and incubated for 10 min at 37° C. before use. A combined agonist/antagonist protocol was used. Compound (antagonist) was added to the cell plate using the FLIPR. Basal fluorescence was recorded every second for 10 seconds prior to compound addition (10 μl) and fluorescence recorded every second for 1 minute then every 6 seconds for a further 1 minute. Agonist (MCP-1) was then added using the FLIPR and fluorescence recorded as described above.
The positive control (agonist) was human recombinant MCP-1 which was stored as a stock concentration of 10 μM in distilled water and stored at −20° C. (maximal response: 30 nM; EC50 dose: 3-5 nM). The reference compound (antagonist) was RS102895 which was used as a 10 mM DMSO solution and stored at −20° C.
FLIPR responses were measured as peak minus basal fluorescence intensity and were expressed as a percentage of EC50 MCP-1 challenge. Curve-fitting and parameter estimation were carried out using GraphPad Prism 4.0 (GraphPad Software Inc., San Diego, Calif.).

human CCR2, sequence (P41597 whole entry): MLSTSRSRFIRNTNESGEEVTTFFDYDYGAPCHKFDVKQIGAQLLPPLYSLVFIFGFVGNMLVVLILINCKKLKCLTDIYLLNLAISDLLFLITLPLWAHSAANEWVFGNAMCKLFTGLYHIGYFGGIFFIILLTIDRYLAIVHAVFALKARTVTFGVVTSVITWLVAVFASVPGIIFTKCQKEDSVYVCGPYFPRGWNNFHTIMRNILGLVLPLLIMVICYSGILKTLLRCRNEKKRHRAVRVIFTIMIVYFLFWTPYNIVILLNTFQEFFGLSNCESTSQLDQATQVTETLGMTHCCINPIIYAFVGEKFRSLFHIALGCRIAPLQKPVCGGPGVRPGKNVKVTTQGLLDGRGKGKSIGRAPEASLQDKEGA

Q: How did the pKi turn out when `CCc1nc2ccnn2c(O)c1Cc1cc(F)c(F)c(F)c1` [Example 13, 5-Ethyl-6-[(3,4,5-trifluorophenyl)-methyl]pyrazolo[1,5-a]pyrimidin-7-ol] was run?
A: > 8.00

Q: How did the pKi turn out when `Cc1nc2c(C#N)cnn2c(O)c1Cc1ccc(Cl)cc1` [Example 59, 6-[(4-Chlorophenyl)methyl]-7-hydroxy-5-methylpyrazolo[1,5-a]pyrimidine-3-carbonitrile] was run?
A: 6.00 to 7.00

Q: How did the pKi turn out when `Cc1nc2ccnn2c(O)c1N(C)c1cccc(F)c1` [Example 80, 6-[(3-Fluorophenyl)(methyl)amino]-5-methylpyrazolo[1,5-a]pyrimidin-7-ol] was run?
A: 6.00 to 7.00

Q: How did the pKi turn out when `CSCCNC(=O)c1cnn2c(O)c(Cc3ccc(Cl)cc3)c(C)nc12` [Example 108, 6-[(4-Chlorophenyl)methyl]-7-hydroxy-5-methyl-N-[2-(methylsulfanyl)ethyl] pyrazolo[1,5-a]pyrimidine-3-carboxamide] was run?
A: 6.00 to 7.00

Q: How did the pKi turn out when `Oc1c(Cc2cccc(Cl)c2)c(C2CCC2)nc2ccnn12` [Example 43, 6-[(3-Chlorophenyl)methyl]-5-cyclobutyl-pyrazolo[1,5-a]pyrimidin-7-ol] was run?
A: > 8.00

Q: With `CC(C)OC(=O)c1nc2ccnn2c(O)c1Cc1ccc(F)c(Cl)c1` [Example 87, Propan-2-yl6-[(3-chloro-4-fluorophenyl)methyl]-7-hydroxypyrazolo[1,5-a]pyrimidine-5-carboxylate] as the compound, how does the pKi read?
A: > 8.00

Q: `Oc1c(Cc2ccc(F)c(C(F)(F)F)c2)c(C2CC2)nc2ccnn12` [Example 31, 5-Cyclopropyl-6-{[4-fluoro-3-(trifluoro-methyl)phenyl]methyl}pyrazolo[1,5-a]-pyrimidin-7-ol] was tested. Which pKi did it give?
A: > 8.00

Q: `O=C(O)c1nc2ccnn2c(O)c1Cc1cccc(Cl)c1` [Example 85, 6-[(3-Chlorophenyl)methyl]-7-hydroxypyrazolo[1,5-a]pyrimidine-5-carboxylic acid] was tested. Which pKi did it give?
A: 6.00 to 7.00

Q: `CCOC(=O)c1nc2ccnn2c(O)c1Cc1ccc(Cl)c(F)c1` [Example 74, Ethyl 6-[(4-chloro-3-fluorophenyl)methyl]-7-hydroxy pyrazolo[1,5-a]pyrimidine-5-carboxylate] was tested. Which pKi did it give?
A: > 8.00

Q: `CC(O)c1nc2ccnn2c(O)c1Cc1cccc(F)c1` (centres unmarked) [Example 95, 6-[(3-Fluorophenyl)methyl]-5-(1-hydroxyethyl)pyrazolo[1,5-a]pyrimidin-7-ol] was tested. Which pKi did it give?
A: 6.00 to 7.00

Q: How did the pKi turn out when `COCCCNC(=O)c1cnn2c(O)c(Cc3ccccc3)c(C)nc12` [Example 112, 6-Benzyl-7-hydroxy-N-(3-methoxypropyl)-5-methylpyrazolo[1,5-a] pyrimidine-3-carboxamide] was run?
A: 6.00 to 7.00

Q: How did the pKi turn out when `Cc1noc(Cc2nc3ccnn3c(O)c2Cc2ccc(Cl)cc2)n1` [Example 98, 6-[(4-Chlorophenyl)methyl]-5-[(3-methyl-1,2,4-oxadiazol-5-yl)methyl]pyrazolo[1,5-a]-pyrimidin-7-ol] was run?
A: 6.00 to 7.00

Q: `Oc1c(Cc2cc(Cl)cc(Cl)c2)c(C2CC2)nc2ccnn12` [Example 34, 5-Cyclopropyl-6-[(3,5-dichlorophenyl)-methyl]pyrazolo[1,5-a]pyrimidin-7-ol] was tested. Which pKi did it give?
A: > 8.00

Q: With `Oc1c(Cc2ccc(F)c(F)c2)c(C2CC2)nc2ccnn12` [Example 24, 5-Cyclopropyl-6-[(3,4-difluorophenyl)-methyl]pyrazolo[1,5-a]pyrimidin-7-ol] as the compound, how does the pKi read?
A: > 8.00

Q: With `CC(C)c1nc2ccnn2c(O)c1Cc1ccc(F)c(F)c1` [Example 35, 6-[(3,4-Difluorophenyl)methyl]-5-(propan-2-yl)pyrazolo[1,5-a]pyrimidin-7-ol] as the compound, how does the pKi read?
A: > 8.00

Q: How did the pKi turn out when `CCC(=O)c1nc2ccnn2c(O)c1Cc1ccc(Cl)c(Cl)c1` [Example 97, 1-{6-[(3,4-Dichlorophenyl)methyl]-7-hydroxypyrazolo[1,5-a]pyrimidin-5-yl}propan-1-one] was run?
A: 7.00 to 8.00

Q: With `Oc1c(Cc2cc(F)cc(C(F)(F)F)c2)c(C2CCC2)nc2ccnn12` [Example 48, 5-Cyclobutyl-6-{[3-fluoro-5-(trifluoro-methyl)phenyl]methyl}pyrazolo[1,5-a]-pyrimidin-7-ol] as the compound, how does the pKi read?
A: > 8.00

Q: `Cc1nc2ccnn2c(O)c1C(C)c1ccc(Cl)cc1` (centres unmarked) [Example 11, 6-[1-(4-Chlorophenyl)ethyl]-5-methyl-pyrazolo[1,5-a]pyrimidin-7-ol] was tested. Which pKi did it give?
A: 6.00 to 7.00

Q: With `Oc1c(Cc2ccc(Cl)c(Cl)c2)c(C(F)(F)F)nc2ccnn12` [Example 55, 6-[(3,4-Dichlorophenyl)methyl]-5-(trifluoromethyl)pyrazolo[1,5-a]pyrimidin-7-ol] as the compound, how does the pKi read?
A: > 8.00

Q: `Oc1c(Cc2ccc(Cl)c(Cl)c2)c(C2CCC2)nc2ccnn12` [Example 50, 5-Cyclobutyl-6-[(3,4-dichlorophenyl)-methyl]pyrazolo[1,5-a]pyrimidin-7-ol] was tested. Which pKi did it give?
A: > 8.00

Q: `CCCc1nc2ccnn2c(O)c1Cc1ccc(Cl)c(Cl)c1` [Example 17, 6-[(3,4-Dichlorophenyl)methyl]-5-propyl-pyrazolo[1,5-a]pyrimidin-7-ol] was tested. Which pKi did it give?
A: > 8.00

Q: `COC(=O)c1nc2ccnn2c(O)c1Cc1cccc(Cl)c1` [Example 81, Methyl 6-[(3-chlorophenyl)methyl]-7-hydroxypyrazolo[1,5-a]pyrimidine-5-carboxylate] was tested. Which pKi did it give?
A: > 8.00

Q: `COC(=O)c1nc2ccnn2c(O)c1Oc1ccc(Cl)c(Cl)c1` [Example 89, Methyl 6-(3,4-dichlorophenoxy)-7-hydroxypyrazolo[1,5-a]pyrimidine-5-carboxylate] was tested. Which pKi did it give?
A: > 8.00

Q: With `CCc1nc2ccnn2c(O)c1Oc1ccc(F)c(Cl)c1` [Example 63, 6-(3-Chloro-4-fluorophenoxy)-5-ethyl-pyrazolo[1,5-a]pyrimidin-7-ol] as the compound, how does the pKi read?
A: 7.00 to 8.00

Q: How did the pKi turn out when `Cc1nc2c(C(=O)NC[C@@H]3CCCO3)cnn2c(O)c1Cc1ccc(Cl)cc1` (stereo in doubt) [Example 110, 6-[(4-Chlorophenyl)methyl]-7-hydroxy-5-methyl-N-(oxolan-2-ylmethyl)pyrazolo-[1,5-a] pyrimidine-3-carboxamide] was run?
A: 6.00 to 7.00

Q: With `CCN(c1cccc(F)c1)c1c(C)nc2ccnn2c1O` [Example 79, 6-[Ethyl(3-fluorophenyl)amino]-5-methylpyrazolo[1,5-a]pyrimidin-7-ol] as the compound, how does the pKi read?
A: 6.00 to 7.00

Q: How did the pKi turn out when `CCc1nc2ccnn2c(O)c1Cc1ccc(Cl)c(Cl)c1` [Example 15, 6-[(3,4-Dichlorophenyl)methyl]-5-ethylpyrazolo[1,5-a]pyrimidin-7-ol] was run?
A: > 8.00

Q: `Oc1c(Cc2ccc(F)c(Cl)c2)c(C2CCC2)nc2ccnn12` [Example 46, 6-[(3-Chloro-4-fluorophenyl)methyl]-5-cyclobutylpyrazolo[1,5-a]pyrimidin-7-ol] was tested. Which pKi did it give?
A: > 8.00

Q: How did the pKi turn out when `COCc1nc2ccnn2c(O)c1Cc1ccc(Cl)cc1` [Example 51, 6-[(4-Chlorophenyl)methyl]-5-(methoxy-methyl)pyrazolo[1,5-a]pyrimidin-7-ol] was run?
A: 7.00 to 8.00

Q: With `CC(=O)c1nc2ccnn2c(O)c1Cc1cccc(F)c1` [Example 94, 1-{6-[(3-Fluorophenyl)methyl]-7-hydroxypyrazolo[1,5-a]pyrimidin-5-yl}ethan-1-one] as the compound, how does the pKi read?
A: 7.00 to 8.00

Q: With `OCc1nc2ccnn2c(O)c1Cc1ccc(Cl)cc1` [Example 90, 6-[(4-Chlorophenyl)methyl]-5-(hydroxymethyl)pyrazolo[1,5-a]pyrimidin-7-ol] as the compound, how does the pKi read?
A: 6.00 to 7.00

Q: How did the pKi turn out when `COCCNC(=O)c1cnn2c(O)c(Cc3ccc(C(F)(F)F)cc3)c(C)nc12` [Example 113, 7-Hydroxy-N-(2-methoxyethyl)-5-methyl-6-{[4-(trifluoromethyl)phenyl]methyl}pyrazolo [1,5-a]pyrimidine-3-carboxamide] was run?
A: 6.00 to 7.00

Q: How did the pKi turn out when `CNC(=O)c1cnn2c(O)c(Cc3ccc(Cl)cc3)c(C)nc12` [Example 99, 6-[(4-Chlorophenyl)methyl]-7-hydroxy-N,5-dimethylpyrazolo[1,5-a]pyrimidine-3-carboxamide] was run?
A: 6.00 to 7.00

Same assay, conditions: agonist positive control

Q: “MCP-1: human recombinant MCP-1, positive control (agonist) of the CCR2 functional assay” was tested. Which pEC50 did it give?
A: 8.30 to 8.52

Q: And the “concentration giving maximal response” value?
A: 30 nM

Reference: patent US20130252951A1, “7-HYDROXY-PYRAZOLO[1,5-A] PYRIMIDINE COMPOUNDS AND THEIR USE AS CCR2 RECEPTOR ANTAGONISTS” (Proximagen Limited, priority 2010, published 2013)
